According to ChEMBL document CHEMBL1131344, “The synthesis of novel matrix metalloproteinase inhibitors employing the Ireland-Claisen rearrangement” (Bioorg Med Chem Lett, 1998):

Key:
[1] = target: Stromelysin-1 (Homo sapiens) (UniProt P08254); experiment: Inhibition of matrix metalloprotease-3 (Stromelysin-1)
[2] = target: 72 kDa type IV collagenase (Homo sapiens) (UniProt P08253); experiment: Inhibition of matrix metalloprotease-2 (Gel.A)
[3] = target: T1, Interstitial collagenase (Homo sapiens) (UniProt P03956); experiment: Inhibition of matrix metalloprotease-1 (HFC)
T1 sequence (whole entry): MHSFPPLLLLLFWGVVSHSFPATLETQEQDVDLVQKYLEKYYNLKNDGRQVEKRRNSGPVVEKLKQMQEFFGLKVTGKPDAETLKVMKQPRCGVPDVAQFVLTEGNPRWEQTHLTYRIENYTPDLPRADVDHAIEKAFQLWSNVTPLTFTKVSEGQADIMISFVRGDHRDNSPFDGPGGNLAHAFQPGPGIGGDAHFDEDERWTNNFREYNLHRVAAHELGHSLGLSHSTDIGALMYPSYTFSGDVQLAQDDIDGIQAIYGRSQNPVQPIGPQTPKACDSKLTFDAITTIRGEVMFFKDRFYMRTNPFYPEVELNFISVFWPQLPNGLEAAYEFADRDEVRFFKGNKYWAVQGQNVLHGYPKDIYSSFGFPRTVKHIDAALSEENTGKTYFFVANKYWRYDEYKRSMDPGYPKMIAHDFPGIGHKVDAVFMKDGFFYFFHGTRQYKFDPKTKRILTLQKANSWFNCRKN

[4] = target: T2, Matrilysin (Homo sapiens) (UniProt P09237); experiment: Inhibition of matrix metalloprotease-7 (Matrilysin)
T2 sequence (whole entry): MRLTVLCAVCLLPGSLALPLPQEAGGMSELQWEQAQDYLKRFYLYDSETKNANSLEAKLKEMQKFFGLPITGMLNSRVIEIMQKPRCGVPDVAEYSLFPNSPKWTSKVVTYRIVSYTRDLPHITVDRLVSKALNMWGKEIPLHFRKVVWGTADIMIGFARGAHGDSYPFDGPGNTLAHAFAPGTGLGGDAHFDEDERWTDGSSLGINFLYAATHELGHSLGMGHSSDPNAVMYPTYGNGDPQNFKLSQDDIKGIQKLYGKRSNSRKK

Rattus norvegicus [5] = species: Rattus norvegicus; experiment: Compound was tested for area under curve in rat; type: ADME, organism-based; set-up: concentration or dose not given beside the values; conditions: in vivo
[6] = Maximum concentration value was evaluated for high sustained blood levels in rat after 2 hr of administration; type: ADME, organism-based
[7] = Maximum concentration value was evaluated for high sustained blood levels in rat after 30 min of administration; type: ADME, organism-based
[8] = Maximum concentration value was evaluated for high sustained blood levels in rat after 1 hr of administration; type: ADME, organism-based
Rattus norvegicus [9] = experiment: Compound was tested for inhibition of Tumor Necrosis Factor production in rat at a peroral dose of 10 mg/kg; type: functional; conditions: route oral
Rattus norvegicus [10] = experiment: Compound was tested for inhibition of Tumor Necrosis Factor production in rat at a peroral dose of 2.5 mg/kg; type: functional; conditions: route oral
Rattus norvegicus [11] = experiment: Compound was tested for inhibition of Tumor Necrosis Factor production in rat at a peroral dose of 5 mg/kg; type: functional; conditions: route oral

Chain of 72 kDa type IV collagenase (Homo sapiens) (P08253 110-660 limits assumed): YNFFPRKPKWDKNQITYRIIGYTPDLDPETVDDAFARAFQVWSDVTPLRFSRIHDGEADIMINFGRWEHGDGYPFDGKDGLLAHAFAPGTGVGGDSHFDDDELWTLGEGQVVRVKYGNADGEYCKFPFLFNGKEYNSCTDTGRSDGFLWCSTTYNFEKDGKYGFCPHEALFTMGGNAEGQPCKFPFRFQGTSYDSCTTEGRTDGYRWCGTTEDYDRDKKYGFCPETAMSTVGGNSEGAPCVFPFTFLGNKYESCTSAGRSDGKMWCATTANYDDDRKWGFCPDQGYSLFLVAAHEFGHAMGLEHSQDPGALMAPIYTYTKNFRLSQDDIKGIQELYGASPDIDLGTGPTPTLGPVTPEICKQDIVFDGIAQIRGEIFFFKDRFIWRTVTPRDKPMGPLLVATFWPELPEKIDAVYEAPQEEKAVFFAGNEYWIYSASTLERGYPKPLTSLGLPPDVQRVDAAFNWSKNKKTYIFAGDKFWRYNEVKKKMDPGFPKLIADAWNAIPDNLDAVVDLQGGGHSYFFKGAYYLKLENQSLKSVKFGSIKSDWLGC
Chain of Stromelysin-1 (Homo sapiens) (P08254 100-477 limits assumed): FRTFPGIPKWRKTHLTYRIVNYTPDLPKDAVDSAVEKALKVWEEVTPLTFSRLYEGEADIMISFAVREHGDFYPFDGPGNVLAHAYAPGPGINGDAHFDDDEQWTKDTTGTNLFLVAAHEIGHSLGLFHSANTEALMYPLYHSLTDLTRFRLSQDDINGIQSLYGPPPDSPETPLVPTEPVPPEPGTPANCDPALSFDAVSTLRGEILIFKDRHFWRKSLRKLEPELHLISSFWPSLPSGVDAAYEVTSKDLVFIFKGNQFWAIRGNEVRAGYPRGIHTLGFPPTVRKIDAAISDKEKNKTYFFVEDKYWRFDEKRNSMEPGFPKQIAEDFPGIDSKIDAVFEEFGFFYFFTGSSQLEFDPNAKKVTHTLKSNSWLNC

SMILES | Activity [1] [nM] | Activity [2] [nM] | Activity [3] [nM] | Activity [4] [nM] | AUC (Rattus norvegicus [5]) [ng·h/mL] | Cmax [6] [ng/mL] | Cmax [7] [ng/mL] | Cmax [8] [ng/mL] | inhibition in vivo at 10 mg/kg (Rattus norvegicus [9]) [%] | inhibition in vivo at 2.5 mg/kg (Rattus norvegicus [10]) [%] | inhibition in vivo at 5 mg/kg (Rattus norvegicus [11]) [%]
CC(C)CC(C(=O)N[C@H](C(=O)Nc1ccccn1)C(C)(C)C)C(C(=O)NO)C1CCCCC1 (single isomer, unassigned) | 20 | 10 | 4 |  |  |  |  |  |  |  | 
CC(C)CC(C(=O)N[C@H](C(=O)Nc1ccccn1)C(C)(C)C)C(C(=O)NO)C1CCCC1 (single isomer, unassigned; 12j) [listing 1 of 2 here] | 20 | 30 | 3 | 3 |  |  |  |  |  |  | 
CNC(=O)[C@@H](NC(=O)C(CC(C)C)C(C(=O)NO)C1CCC(C(C)(C)C)CC1)C(C)(C)C (single isomer, unassigned) | 100 | 30 | 40 | 50 |  |  |  |  |  |  | 
CNC(=O)[C@@H](NC(=O)[C@H](CC(C)C)[C@@H](C(=O)NO)C1CCSC1)C(C)(C)C (stereo not given in full) | 40 | 5 | 5 | 4 |  |  |  |  |  |  | 
CNC(=O)[C@@H](NC(=O)C(CC(C)C)C(C(=O)NO)C1CCCCC1)C(C)(C)C (single isomer, unassigned) | 30 | 10 | 4 | 20 | 155 | 9.75 |  |  |  |  | 
CC(C)CC(C(=O)N[C@H](C(=O)Nc1ccccn1)C(C)(C)C)C(C(=O)NO)C1CCCC1 (single isomer, unassigned; 12m) | 50 | 100 | 20 |  |  |  |  |  |  |  | 
CNC(=O)[C@@H](NC(=O)[C@H](CC(C)C)[C@@H](C(=O)NO)C1CCC(C)CC1)C(C)(C)C (stereo not given in full) | 40 | 9 | 4 | 7 |  |  |  |  |  |  | 
CNC(=O)[C@@H](NC(=O)C(CC(C)C)C(C(=O)NO)C1CC1)C(C)(C)C (single isomer, unassigned) | 300 | 100 | 20 | 200 | 1020 |  | 106 |  |  |  | 
CNC(=O)[C@@H](NC(=O)[C@H](CC(C)C)[C@@H](C(=O)NO)C(C)C)C(C)(C)C | 40 | 1 | 1 | 5 | 895 |  | 376 |  |  |  | 
CC(C)C[C@@H](C(=O)N[C@H](C(=O)Nc1ccccn1)C(C)(C)C)[C@@H](C(=O)NO)C1CCC(C)CC1 (stereo not given in full) | 20 | 40 | 5 | 3 |  |  |  |  |  |  | 
CNC(=O)[C@@H](NC(=O)C(CC(C)C)C(C(=O)NO)C1CCCC1)C(C)(C)C (single isomer, unassigned) | 30 | 3 | 4 | 20 | 2090 |  |  | 336 | 98 | 94 | 92
CNC(=O)[C@@H](NC(=O)[C@H](CC(C)C)[C@@H](C(=O)NO)C1CCN(C)CC1)C(C)(C)C | 500 | 3 | 30 | 200 |  |  |  |  |  |  | 
CNC(=O)[C@@H](NC(=O)C(CC(C)C)C(C(=O)NO)C1CCC1)C(C)(C)C (single isomer, unassigned) | 50 | 2 | 3 | 20 |  |  |  |  |  |  | 
CC(C)CC(C(=O)N[C@H](C(=O)Nc1ccccn1)C(C)(C)C)C(C(=O)NO)C1CCCC1 (single isomer, unassigned; 12j) [listing 2 of 2 here] |  |  |  |  | 899 | 70.7 |  |  |  |  | 
CNC(=O)[C@@H](NC(=O)C(CC(C)C)C(O)C(=O)NO)C(C)(C)C (single isomer, unassigned) | 200 | 6 | 5 | 20 |  |  |  |  | 69 | 11 | 50
